The source of these data is ChEMBL document CHEMBL1149848, “Prenylated flavonoid derivatives from the bark of Erythrina addisoniae” (J Nat Prod, 2008).

Molecules are shown by their SMILES. The source made the active and inactive calls. No cut-off for these calls is given here.

Type in all cases: functional, cell-based
Test [1] in a line: Cytotoxicity against rat H4IIE cells after 24 hrs by MTT assay. For orientation: Tetrazolium assays rely on reduction of a dye to a coloured formazan, in cell work by metabolically active cells.
Test [2] deals with H4IIE. Description: Cytotoxicity against rat H4IIE cells assessed as caspase-3/7 activation after 24 hrs by Apo-ONE assay.
Test [3] concerns H4IIE. As to the kind of experiment: Cytotoxicity against rat H4IIE cells assessed as nuclear fragmentation after 24 hrs by Hoechst staining.

In test [1], `COc1c(CC=C(C)C)cc([C@@H]2CC(=O)c3c(O)cc(O)cc3O2)cc1CC=C(C)C` had an IC50 of 5 µM.
Turning to `O=C1C[C@@H](c2ccc(O)cc2)Oc2cc(O)ccc21` [LIQUIRTIGENIN], the IC50 in test [1] was above 100 µM.
In test [1], `O=C1C[C@@H](c2ccc(O)cc2)Oc2cc(O)cc(O)c21` [NARINGENIN] registered an IC50 above 100 µM.
With `CC(C)=CCc1cc([C@@H]2CC(=O)c3ccc(O)cc3O2)cc(CC=C(C)C)c1O` [ABYSSINONE IV], the IC50 in test [1] stood at 15 µM.
The compound `C=C(C)C(O)Cc1cc([C@@H]2CC(=O)c3c(O)cc(O)cc3O2)cc(CC=C(C)C)c1O` (some centres not stated) [ABYSSINOFLAVANONE VII] yielded an IC50 in test [1] of 3.5 µM. For the same compound, the result with H4IIE [2] and with H4IIE [3] was Active.

In general, IC50 refers to the concentration needed to halve the response being measured. A lower IC50 goes with inhibition by little substance.
